{"source": "patent US9102588B2", "about": "“Fungicide N-cycloalkyl-N-bicyclic-carboxamide derivatives” (priority 2007, dated 2015)", "data": [{"assay": "logP", "format": "physicochemical", "conditions": "intermediate amines of formula (II)", "values": [{"smiles": "c1ccc2c(c1)SCCC2NC1CC1", "note": "(racemic) [Example 177]", "logP": 0.67}, {"smiles": "CC1(C)CCC(NC2CC2)c2ccccc21", "note": "(racemic) [Example 178]", "logP": 1.26}, {"smiles": "COc1cc2c(cc1OC)C(NC1CC1)C(C)(C)CO2", "note": "(stereo not shown) [Example 167]", "logP": 1.22}, {"smiles": "CC1Cc2ccccc2C1NC1CC1", "note": "(stereo not shown) [Example 171]", "logP": 0.81}, {"smiles": "CC1(C)CC(NC2CC2)c2ccccc21", "note": "(stereo not shown) [Example 174]", "logP": 1.15}, {"smiles": "c1ccc2c(c1)OCCC2NC1CC1", "note": "(stereo not shown) [Example 175]", "logP": 0.32}, {"smiles": "Clc1ccc2c(c1)C(NC1CC1)CCO2", "note": "(stereo not shown) [Example 176]", "logP": 0.83}]}]}
